Assay results as given in patent US20250114337A1, “METHODS FOR VASCULAR REGENERATION AND WOUND TREATMENT” (THE METHODIST HOSPITAL, priority 2022, published 2025).
“Also recorded” adds a separate entry of the source.

Experiments:
BJ fibroblasts = assay: in vitro transdifferentiation of fibroblasts to induced endothelial cells (iECs); assay type: cell-based, human; settings: fibroblasts exposed during transdifferentiation protocol
Excerpt: Innate immune activation is required for transdifferentiation. […] 131 (3): p. 300-9). iECs generated from this protocol manifest high fidelity for endothelial lineage. They incorporate acetylated LDL (FIG. 2B), form tubular networks (FIG. 2C), have similar transcriptomes as genuine endothelial cells, and increase capillary density and perfusion when injected into the ischemic hindlimb of the mouse (FIG. 2D) (Sayed, N., et al., Circulation, 2015. 131 (3): p. 300-9). This protocol can be utilized to study the role of O-GlcNAcylation in transdifferentiation in vitro.
O-GlcNAcylation is required for in vitro transdifferentiation. To define if the elevation of O-GlcNAcylation is required for transdifferentiation, fibroblasts were exposed to Thiamet G (TMG) (an OGA inhibitor that enhances O-GlcNAcylation) or DON (an inhibitor for GFAT that acts upstream in the hexosamine biosynthesis pathway and reduces O-GlcNAcylation). The number of iECs generated during transdifferentiation is increased when fibroblasts are exposed to TMG and decreased when exposed to DON (FIG. 5A). […] The role of O-GlcNAcylation of specific epigenetic regulars e.g., HIRA during transdifferentiation can also be addressed.
To define if the elevation of O-GlcNAcylation is required for transdifferentiation, inhibitors of O-GlcNAcylation including OSMI (an inhibitor for OGT) and DON (an inhibitor for GFAT that acts upstream in the hexosamine biosynthesis pathway and reduces O-GlcNAcylation) or an activator of O-GlcNAcylation. Thiamet G (TMG) (an OGA inhibitor that enhances O-GlcNAcylation), were delivered to BJ fibroblasts undergoing transdifferentiation. The number of CD31 expressing iECs generated during transdifferentiation decreases when exposed to OSMI or DON and increases when fibroblasts are exposed to TMG (FIG. 17B). Then OGT or OGA were knocked down using shRNA in the BJ fibroblasts (FIG. 17C) and performed transdifferentiation protocol in vitro.

[1] = tested on: ischemic hindlimb mice model; assay: hindlimb ischemia recovery in WT C57BL/6 mice, laser doppler imaging; assay type: in vivo, mouse; settings: OSMI4 10 mg/kg 0, 1, 2 days post-surgery; younger mice (8 to 12 weeks)
Experimental: O-GlcNAcylation manipulations regulated recovery from tissue ischemia. To determine if the change in O-GlcNAcylation can modulate limb ischemia recovery, and contributes to vascular recovery, WT C57BL/6 mice were treated with the O-GlcNAcylation inhibitor, OSMI4, or O-GlcNAcylation enhancer, TMG 0, 1, 2 days post-surgery. Age is an important factor that determines recovery, and younger mice are known to have a more robust angiogenic response as compared with older mice. Accordingly, younger mice (between 8 to 12 weeks) were used to assess the impairment of angiogenesis by OSMI (which reduces O-GlcNAcylation). Older mice (around 20 weeks) were used to assess the enhancement of angiogenesis by TMG (which increases O-GlcNAcylation). […] It will be determined whether this beneficial effect is mediated by increased DNA accessibility and enhanced transdifferentiation.
To determine if O-GlcNAcylation manipulations can modulate the overall effect of vascular recovery from limb ischemia. WT C57BL/6 mice were treated with the O-GlcNAcylation inhibitor. OSMI4 (10 mg/kg), or O-GlcNAcylation enhancer. TMG (10 mg/kg) 0, 1, 2 days post-surgery (FIG. 19A).

In the case of `CCOC(=O)CN(Cc1cccs1)C(=O)[C@H](NS(=O)(=O)c1cc2ccc(=O)[nH]c2cc1Cl)c1ccccc1OC` [OSMI], the “iEC yield (number of CD31 expressing iECs generated during transdifferentiation)” value (BJ fibroblasts) is reported as “decreases; also recorded: impair” and the “recovery of blood flow post femoral artery ligation (revascularization)” value [1] is reported as “impaired recovery; also recorded: impairs”.
